{
  "source": "patent US10844091B2",
  "about": "(priority 2017, dated 2020)",
  "format_in_all_cases": "in vivo",
  "key": {"[1]": {"system": "rat models with Alzheimer's disease", "assay": "Conditioned passive avoidance reflex (CPAR) test, scopolamine-induced Alzheimer's disease model", "conditions": "for AA less than in the tetrapeptide (LYS) group: donepezil 1 mg/kg; for number of animals who reached the CPAR learning criterium: % of total trained animals, criterium at least 180 sec in light area", "experimental": "(§1) White random-bred adult male rats weighing 200-240 g were used. Groups of 7 animals per group were formed. 1st group—control, 2nd—pathology, 3rd—comparator drug, 4th-6th—neuropeptides.\n(§2) Scopolamine was administered i.p. to the animals in all groups except for the control at a 1 mg/kg dose daily, once a day for 27 days. From the 28th day on, the animals in groups 2 and 3 were administered the comparator drug and the claimed preparation respectively over the course of 10 days. The drugs were administered daily, once a day.\n(§3) The tetrapeptides were administered i.n at a 0.1 mg/kg dose. The animals in the pathology group received 0.9% sodium chloride solution i.n. and i.p. as a placebo.\n(§4) The OF and EE tests were conducted on the 1st day, PST—on the 2nd day, CPAR—on the 1st and 10th day post treatment with the preparations. […] The antiamnesic action (AA) in the CPAR test was calculated using Butler's formula [K. S. Radionova. […] After that, the animals were removed from the experiment by administering a narcotic, followed by decapitation. The brain was extracted and weighed, and the brain weight coefficient (BWC) was calculated. Immediately after extraction, the brain was frozen in liquid nitrogen and used in subsequent biochemical and histochemical studies. Glucose levels in whole arterial (common carotid artery) and venous (venous cerebral sinus) blood were determined by the glucose oxidase test, the difference in the arterial-venous glucose content was calculated (glucose consumption marker). The levels of average weight molecules—the toxic products of cell biodegradation damaged during the disease (nucleoside derivatives, peptoids, glucuronic acid salts, etc.) in the blood serum (AWM) were calculated [A. N. Kovalevsky. Notes on the screening method of determination average weight molecules/A. N. Kovalevsky, O. Ye. Nifantiev//Lab. Science. […] 35-39]."}, "[2]": {"system": "rat models with Alzheimer's disease", "assay": "Extrapolation escape (EE) test, scopolamine-induced Alzheimer's disease model", "conditions": "3 min test; scopolamine 1 mg/kg i.p. 27 days; donepezil 1 mg/kg i.p. 10 days, peptide (LYS) 0.1 mg/kg i.n. 10 days", "experimental": "as §1, §2, §3, §4"}, "rat models with AD": {"system": "rat models with AD", "assay": "Porsolt swim test (PST), scopolamine-induced Alzheimer's disease model", "conditions": "AD rats; donepezil 1 mg/kg i.p., tetrapeptide (LYS) 0.1 mg/kg i.n.", "experimental": "as §1, §2, §3, §4"}},
  "data": [
    {"molecule": "COc1cc2c(cc1OC)C(=O)C(CC1CCN(Cc3ccccc3)CC1)C2", "note": "(centres unmarked) [donepezil, reference compound]", "values": [
      {"measurement": "AA less than in the tetrapeptide (LYS) group", "setting": "[1]; 10th day", "result": 1.9, "unit": "times"},
      {"measurement": "Latent period of entry into the dark area of the CPAR device, In 24 hrs.", "setting": "[1]; In 24 hrs., scopolamine + donepezil 1 mg/kg or tetrapeptide (LYS) 0.1 mg/kg i.n.", "result": "93.29 ± 26.11", "unit": "s"},
      {"measurement": "Latent period of entry into the dark area of the CPAR device, In 10 days", "setting": "[1]; In 10 days, scopolamine + donepezil 1 mg/kg or tetrapeptide (LYS) 0.1 mg/kg i.n.", "result": "69.43 ± 11.10^ sec."},
      {"measurement": "Latent period of entry into the dark area of the CPAR device, Initial", "setting": "[1]; Initial, scopolamine + donepezil 1 mg/kg or tetrapeptide (LYS) 0.1 mg/kg i.n.", "result": "24.00 ± 6.23", "unit": "s"},
      {"measurement": "number of animals who reached the CPAR learning criterium", "setting": "[1]; first day", "result": 28.6, "unit": "%"},
      {"measurement": "AA less than in the tetrapeptide (LYS) group", "setting": "[1]; first day", "result": 2.9, "unit": "times"},
      {"measurement": "number of animals who reached the CPAR learning criterium", "setting": "[1]; tenth day", "result": "goes down to the level of the pathology group"},
      {"measurement": "% of animals succeeded", "setting": "[2]", "result": 100, "unit": "%"},
      {"measurement": "Escape time", "setting": "[2]", "result": "18.86 ± 3.57", "unit": "s"},
      {"measurement": "Latent period of immobilization", "setting": "rat models with AD", "result": "69.43 ± 12.64", "unit": "s"},
      {"measurement": "Number of immobilization acts", "setting": "rat models with AD", "result": "9.29 ± 1.66"}
    ]}
  ]
}
